Measured values: PubChem BioAssay (NCI)
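Grown in 96-well plates, cells were treated for 48 hours with each compound at five concentrations. Insufficient inhibition: endpoint recorded as highest concentration tested. TGI is the concentration that stops growth completely.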

Tests used:
Experiment in all cases: inhibition of tumour cell growth, NCI panel, 48 h
OVCAR-5 ovarian = tested on: OVCAR-5 ovarian
PC-3 prostate = tested on: PC-3 prostate
786-0 renal = tested on: 786-0 renal
BT-549 breast = tested on: BT-549 breast
U251 CNS = tested on: U251 CNS
NCI-H23 lung = tested on: NCI-H23 lung
NCI-H460 lung = tested on: NCI-H460 lung
UO-31 renal = tested on: UO-31 renal
HCT-116 colon = tested on: HCT-116 colon
HCC-2998 colon = tested on: HCC-2998 colon
M14 melanoma = tested on: M14 melanoma
LOX IMVI melanoma = tested on: LOX IMVI melanoma
OVCAR-4 ovarian = tested on: OVCAR-4 ovarian
NCI-H226 lung = tested on: NCI-H226 lung
RPMI-8226 leukemia = tested on: RPMI-8226 leukemia
SR leukemia = tested on: SR leukemia
SK-MEL-2 melanoma = tested on: SK-MEL-2 melanoma
CCRF-CEM leukemia = tested on: CCRF-CEM leukemia
COLO 205 colon = tested on: COLO 205 colon
DU-145 prostate = tested on: DU-145 prostate
SF-268 CNS = tested on: SF-268 CNS
IGROV1 ovarian = tested on: IGROV1 ovarian
HL-60(TB) leukemia = tested on: HL-60(TB) leukemia
KM12 colon = tested on: KM12 colon
SN12C renal = tested on: SN12C renal
MALME-3M melanoma = tested on: MALME-3M melanoma
CAKI-1 renal = tested on: CAKI-1 renal
SK-MEL-28 melanoma = tested on: SK-MEL-28 melanoma
HOP-62 NSCLC = tested on: HOP-62 NSCLC
MDA-MB-231 breast = tested on: MDA-MB-231 breast
RXF 393 renal = tested on: RXF 393 renal
HS 578T breast = tested on: HS 578T breast
ACHN renal = tested on: ACHN renal
SK-MEL-5 melanoma = tested on: SK-MEL-5 melanoma
MDA-N = tested on: MDA-N
SNB-19 CNS = tested on: SNB-19 CNS
SK-OV-3 ovarian = tested on: SK-OV-3 ovarian
MOLT-4 leukemia = tested on: MOLT-4 leukemia
K-562 leukemia = tested on: K-562 leukemia
HT29 colon = tested on: HT29 colon
MCF7 breast = tested on: MCF7 breast
UACC-62 melanoma = tested on: UACC-62 melanoma
SF-295 CNS = tested on: SF-295 CNS
A549 NSCLC = tested on: A549 NSCLC
MDA-MB-435 = tested on: MDA-MB-435
A498 renal = tested on: A498 renal
SW-620 colon = tested on: SW-620 colon
SNB-75 CNS = tested on: SNB-75 CNS
HOP-92 NSCLC = tested on: HOP-92 NSCLC
OVCAR-3 ovarian = tested on: OVCAR-3 ovarian
EKVX NSCLC = tested on: EKVX NSCLC
SF-539 CNS = tested on: SF-539 CNS
OVCAR-8 ovarian = tested on: OVCAR-8 ovarian
NCI-H522 lung = tested on: NCI-H522 lung
UACC-257 melanoma = tested on: UACC-257 melanoma
NCI/ADR-RES ovarian = tested on: NCI/ADR-RES ovarian

Measured: TGI

CCOC(=O)/C(C#N)=C/c1ccc(SCc2ccco2)c([N+](=O)[O-])c1
> 100 µM: all assays above
